Results published in patent publication US20250215029A1 (Recludix Pharma, Inc., priority 2022, published 2025).

What follows are molecules tested against T1, pY641-STAT6 in PBMC (Homo sapiens, UniProt P42226) (assay: MSD-pSTAT-PBMC Assay (pSTAT6, IL-4 stimulated)). Settings: PBMC, compound 3 hrs, then 1 ng/mL IL-4 for 10 min; Table 115; read-out: STAT6.
T1 construct: Cryopreserved Peripheral Blood Mononuclear Cells (PBMC) are from AllCells; host or cells: cryopreserved PBMC
T1 sequence (P42226 1-847): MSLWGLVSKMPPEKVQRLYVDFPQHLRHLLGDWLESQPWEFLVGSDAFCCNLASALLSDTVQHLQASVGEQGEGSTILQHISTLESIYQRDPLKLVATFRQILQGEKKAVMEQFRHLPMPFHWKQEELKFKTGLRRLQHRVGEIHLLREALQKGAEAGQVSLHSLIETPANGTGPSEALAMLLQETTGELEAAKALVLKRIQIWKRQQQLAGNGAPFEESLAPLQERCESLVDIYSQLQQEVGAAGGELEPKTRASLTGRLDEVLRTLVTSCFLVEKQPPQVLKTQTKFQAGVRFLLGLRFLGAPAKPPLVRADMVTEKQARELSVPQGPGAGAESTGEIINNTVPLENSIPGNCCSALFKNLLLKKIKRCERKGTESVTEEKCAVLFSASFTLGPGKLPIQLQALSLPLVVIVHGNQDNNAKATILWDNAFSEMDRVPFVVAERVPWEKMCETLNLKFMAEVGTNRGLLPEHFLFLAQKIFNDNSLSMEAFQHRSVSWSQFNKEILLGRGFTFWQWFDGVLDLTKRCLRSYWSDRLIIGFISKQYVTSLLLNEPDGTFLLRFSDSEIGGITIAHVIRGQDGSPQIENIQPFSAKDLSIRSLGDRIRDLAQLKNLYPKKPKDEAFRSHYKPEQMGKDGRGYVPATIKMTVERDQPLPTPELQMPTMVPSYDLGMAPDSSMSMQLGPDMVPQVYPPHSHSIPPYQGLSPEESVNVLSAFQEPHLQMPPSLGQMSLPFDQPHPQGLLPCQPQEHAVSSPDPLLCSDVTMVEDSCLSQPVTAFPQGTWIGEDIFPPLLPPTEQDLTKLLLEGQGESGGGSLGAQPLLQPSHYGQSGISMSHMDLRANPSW
Type: cell-based
Summary of the method: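 Cells are preincubated with compound for 3 hrs, then stimulated for 10 min, IL-4 at 1 ng/mL driving STAT6 phosphorylation and IL-6 at 10 ng/mL driving STAT3. Phospho-STAT in lysates is quantified by MSD immunoassay, and IC50 is fitted after subtracting unstimulated wells.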

Molecule	IC50 [nM]
CCCOC(=O)[C@H](C)NP(=O)(Oc1ccccc1)[C@@H](F)c1ccc2sc(C(=O)N[C@H]3CCCC[C@H]4CC[C@@H](C(=O)N5C[C@H](c6cccc(Cl)c6)[C@@H](C#N)C56CC6)N4C3=O)cc2c1 (some centres unmarked) [Compound 345]	< 100
(4-methyl- 112,212,4- triazolidin-3- yl)methyl (((1R)- fluoro(2- (((3S,6S,9aS)-5- oxo-3-((R)-6- (pyridin-3-yl)-4- azaspiro[2.4]heptane- 4- carbonyl)octahydro- 1H-pyrrolo[1,2- a]azepin-6- yl)carbamoyl)-2,3- dihydrobenzo[b] thiophen-5- yl)methyl)(phenoxy) phosphoryl)-L- alaninate [Compound 373]	> 3000
COCCOC(=O)[C@H](C)NP(=O)(OCC(F)(F)F)[C@@H](F)c1ccc2sc(C(=O)N[C@H]3CCCC[C@H]4CC[C@@H](C(=O)N5CC(c6ccccc6)C(C#N)C56CC6)N4C3=O)cc2c1 (stereo in doubt) [Compound 377, 2-methoxyethyl (((R)-(2-(((3S,6S,10aS)-3-((6S,7R)-7-cyano-6-phenyl-4-azaspiro[2.4]heptane-4-carbonyl)-5-oxodecahydropyrrolo [1,2-a]azocin-6-yl)carbamoyl)benzo [b]thiophen-5-yl)fluoromethyl)(2,2,2-trifluoroethoxy)phosphoryl)-L-alaninate]	< 100

Same assay, conditions: STAT6, PBMC, compound 3 hrs, then 1 ng/mL IL-4 for 10 min; Table 115

Molecule	IC50 [nM]
C[C@H](NP(=O)(Oc1ccccc1)[C@@H](F)c1ccc2sc(C(=O)N[C@H]3CCC[C@H]4CC[C@@H](C(=O)N5C[C@@H](c6cccnc6)CC56CC6)N4C3=O)cc2c1)C(=O)OCc1nnnn1C (stereo partly drawn) [Compound 356, (1-methyl-1H-tetrazol-5-yl)methyl (((R)-fluoro(2-(((3S,6S,9aS)-5-oxo-3-((R)-6-(pyridin-3-yl)-4-azaspiro[2.4]heptane-4-carbonyl)octahydro-1H-pyrrolo[1,2-a]azepin-6-yl)carbamoyl)benzo [b]thiophen-5-yl)methyl)(phenoxy)phosphoryl)-L-alaninate]	100 to 1000
CCCOC(=O)[C@H](C)NP(=O)(Oc1ccccc1)C(F)c1ccc2sc(C(=O)N[C@H]3CCCC[C@H]4CC[C@@H](C(=O)N5C[C@@H](C#N)[C@H](c6cccn(C)c6=O)C5)N4C3=O)cc2c1 (relative stereo) [Compound 299, propyl (((2-(((3S,6S,10aS)-3-(rel-(trans)-3-cyano-4-(1-methyl-2-oxo-1,2-dihydropyridin-3-yl)pyrrolidine-1-carbonyl)-5-oxodecahydropyrrolo [1,2-a]azocin-6-yl)carbamoyl)benzo [b]thiophen-5-yl)fluoromethyl) (phenoxy)phosphoryl)-L-alaninate]	100 to 1000
CCCOC(=O)[C@@H]1CCN1P(=O)(Oc1ccccc1)[C@H](F)c1ccc2sc(C(=O)N[C@H]3CCC[C@H]4CC[C@@H](C(=O)N5C[C@H](c6ccccc6)[C@@H](C#N)C56CC6)N4C3=O)cc2c1 (stereo partly drawn) [Compound 488, propyl (2S)-1-(((S)-(2-(((3S,6S,9aS)-3-((6S,7R)-7-cyano-6-phenyl-4-azaspiro[2.4]heptane-4-carbonyl)-5-oxooctahydro-1H-pyrrolo[1,2-a]azepin-6-yl)carbamoyl)benzo [b]thiophen-5-yl)fluoromethyl) (phenoxy)phosphoryl) azetidine-2-carboxylate]	1000 to 3000
C[C@H](NP(=O)(Oc1ccccc1)[C@@H](F)c1ccc2sc(C(=O)N[C@H]3CCCC[C@H]4CC[C@@H](C(=O)N5C[C@@H](c6cccnc6)CC56CC6)N4C3=O)cc2c1)C(=O)OCC1(C)COC1 (stereo partly drawn) [Compound 386, (3-methyloxetan-3-yl)methyl (((R)-fluoro(2-(((3S,6S,10aS)-5-oxo-3-((R)-6-(pyridin-3-yl)-4-azaspiro[2.4]heptane-4-carbonyl)decahydropyrrolo[1,2-a]azocin-6-yl)carbamoyl)benzo [b]thiophen-5-yl)methyl)(phenoxy)phosphoryl)-L-alaninate]	< 100
CCCOC(=O)[C@H](COC)NP(=O)(Oc1ccccc1)[C@@H](F)c1ccc2sc(C(=O)N[C@H]3CCCC[C@H]4CC[C@@H](C(=O)N5C[C@@H](c6cccnc6)CC56CC6)N4C3=O)cc2c1 (stereo partly drawn) [Compound 384, propyl N-(((R)-fluoro(2-(((3S,6S,10aS)-5-oxo-3-((R)-6-(pyridin-3-yl)-4-azaspiro[2.4]heptane-4-carbonyl)decahydropyrrolo[1,2-a]azocin-6-yl)carbamoyl)benzo [b]thiophen-5-yl)methyl)(phenoxy)phosphoryl)-O-methyl-L-serinate]	< 100
CCCOC(=O)[C@H](C)NP(=O)(Oc1ccccc1)C(F)c1ccc2sc(C(=O)N[C@H]3CCCC[C@H]4CC[C@@H](C(=O)N5C(=O)N(c6cc(=O)n(C)cc6F)C(=O)C56CC6)N4C3=O)cc2c1 (stereo partly drawn) [Compound 976, propyl ((fluoro(2-(((3S,6S,10aS)-3-(6-(5-fluoro-1-methyl-2-oxo-1,2-dihydropyridin-4-yl)-5,7-dioxo-4,6-diazaspiro [2.4]heptane-4-carbonyl)-5-oxodecahydropyrrolo [1,2-a]azocin-6-yl)carbamoyl)benzo [b]thiophen-5-yl)methyl)(phenoxy)phosphoryl)-L-alaninate]	> 3000
CCCOC(=O)[C@H](C)NP(=O)(Oc1ccccc1)[C@@H](F)c1ccc2sc(C(=O)N[C@H]3CCCC[C@H]4CC[C@@H](C(=O)N5C[C@H](c6cncc(OC)c6)[C@@H](C#N)C56CC6)N4C3=O)cc2c1 (single isomer, unassigned) [Compound 372]	> 3000
CCCOC(=O)[C@H](C)NP(=O)(Cc1ccc2sc(C(=O)N[C@H]3CCC[C@H]4CC[C@@H](C(=O)N5C[C@@H](c6ccccc6)[C@H](C#N)C56CC6)N4C3=O)cc2c1)Oc1ccccc1 (stereo partly drawn) [Compound 486, propyl (((2-(((3S,6S,9aS)-3-((6R,7S)-7-cyano-6-phenyl-4-azaspiro[2.4]heptane-4-carbonyl)-5-oxooctahydro-1H-pyrrolo[1,2-a]azepin-6-yl)carbamoyl)benzo [b]thiophen-5-yl)methyl)(phenoxy)phosphoryl)-L-alaninate]	< 100
CCC(CC)COC(=O)[C@H](C)NP(=O)(Oc1ccccc1)[C@@H](F)c1ccc2sc(C(=O)N[C@H]3CCCC[C@H]4CC[C@@H](C(=O)N5C[C@@H](c6cccnc6)CC56CC6)N4C3=O)cc2c1 (stereo partly drawn) [Compound 471, 2-ethylbutyl (((R)-fluoro(2-(((3S,6S,10aS)-5-oxo-3-((R)-6-(pyridin-3-yl)-4-azaspiro[2.4]heptane-4-carbonyl)decahydropyrrolo[1,2-a]azocin-6-yl)carbamoyl)benzo [b]thiophen-5-yl)methyl)(phenoxy)phosphoryl)-L-alaninate]	< 100
CCCOC(=O)[C@H](C)NP(=O)(Cc1ccc2ccc(C(=O)N[C@H]3CCCC[C@H]4CC[C@@H](C(=O)N5CCC(c6cccnc6)C5)N4C3=O)cc2c1)Oc1ccccc1 (stereo partly drawn) [Compound 305, propyl (((7-(((3S,6S,10aS)-5-oxo-3-(3-(pyridin-3-yl)pyrrolidine-1-carbonyl)decahydropyrrolo[1,2-a]azocin-6-yl)carbamoyl)naphthalen-2-yl)methyl)(phenoxy)phosphoryl)-L-alaninate]	100 to 1000
CCCCOC(=O)[C@H](C)NP(=O)(Cc1ccc2ccc(C(=O)N[C@H]3CCCC[C@H]4CC[C@@H](C(=O)N5CC(c6ccccc6)CC56CC6)N4C3=O)cc2c1)Oc1cccc2ccccc12 (stereo partly drawn) [Compound 416, butyl ((naphthalen-1-yloxy)((7-(((3S,6S,10aS)-5-oxo-3-(6-phenyl-4-azaspiro[2.4]heptane-4-carbonyl)decahydropyrrolo[1,2-a]azocin-6-yl)carbamoyl)naphthalen-2-yl)methyl)phosphoryl)-L-alaninate]	> 3000
